Here are results for 15 compounds from US8513270B2, “Substituted heterocycles as Janus kinase inhibitors” (Incyte Corporation, priority 2006, dated 2013).

Where a name gives a salt, the structure may show the parent alone.

In general, IC50 refers to the concentration at which inhibition is half-maximal.

The target of assay [1] is T1, human JAK2 (a.a. 828-1132) (Homo sapiens, UniProt O60674).
T1 construct: JAK2 (a.a. 828-1132); His tag (N); made in house; host or cells: insect cells (baculovirus)
In words: In vitro JAK kinase assay (HTRF), JAK2. The class given is biochemical. Particulars: JAK2, 30 μM ATP; read-out: EXAMPLE A HTS-JAK2 HTRF-2 IC50. The protocol:
(§1) Compounds herein were tested for inhibitory activity of JAK targets according to the following in vitro assay described in Park et al., Analytical Biochemistry 1999, 269, 94-104. The catalytic domains of human JAK1 (a.a. 837-1142), JAK2 (a.a. 828-1132) and JAK3 (a.a. 781-1124) with an N-terminal His tag were expressed using baculovirus in insect cells and purified. The catalytic activity of JAK1, JAK2 or JAK3 was assayed by measuring the phosphorylation of a biotinylated peptide. The phosphorylated peptide was detected by homogenous time resolved fluorescence (HTRF). IC50s of compounds were measured for each kinase in the reactions that contain the enzyme, ATP and 500 nM peptide in 50 mM Tris (pH 7.8) buffer with 100 mM NaCl, 5 mM DTT, and 0.1 mg/mL (0.01%) BSA. The ATP concentration in the reactions was 90 μM for JAK1, 30 μM for JAK2 and 3 μM for JAK3. Reactions were carried out at room temperature for 1 hr and then stopped with 20 μL 45 mM EDTA, 300 nM SA-APC, 6 nM Eu—Py20 in assay buffer (Perkin Elmer, Boston, Mass.). Binding to the Europium labeled antibody took place for 40 minutes and HTRF signal was measured on a Fusion plate reader (Perkin Elmer, Boston, Mass.).
A general note: In TR-FRET formats the signal depends on donor and acceptor labels being close together.

Assay [2] concerns JAK2_INA61 (cancer cell line dependent on cytokines and JAK/STAT signal transduction). As to the kind of experiment: Cellular assay: viability of cytokine-dependent cancer cell line (CellTiter-Glo). As to conditions: 72 hours, read-out: EXAMPLE B JAK2_INA61 IC50. In kind it is cell-based. How it is done: One or more compounds herein were tested for inhibitory activity of JAK targets according to at least one of the following cellular assays.
Compounds were added to the cells in DMSO/media (final concentration 0.2% DMSO) and incubated for 72 hours at 37° C., 5% CO2. The effect of compound on cell viability was assessed using the CellTiter-Glo Luminescent Cell Viability Assay (Promega) followed by TopCount (Perkin Elmer, Boston, Mass.) quantitation. Potential off-target effects of compounds were measured in parallel using a non-JAK driven cell line with the same assay readout. […] All experiments were performed in duplicate.
In general terms: Cellular ATP, detected with luciferase, serves as a proxy for viable cell number.

For assay [3], the target named is T2, human JAK1 (a.a. 837-1142) (Homo sapiens, UniProt P23458).
T2 construct: human JAK1 (a.a. 837-1142); His tag (N); made in house; host or cells: insect cells (baculovirus)
As to the kind of experiment: In vitro JAK kinase assay (HTRF), JAK1. Particulars: JAK1, 90 μM ATP; read-out: EXAMPLE A JAK2-JAK1 HTRF-2 IC50. In kind it is biochemical. The protocol:
as §1

Another assay addresses TF1-BCRABL1 cells (Homo sapiens, UniProt P00519). As to the kind of experiment: ABL1 cell based assay: viability of ABL1-dependent cell line (CellTiter-Glo). As to conditions: 72 hours, cell viability; read-out: EXAMPLE F JAK2-TF1-BCRABL1 IC50. The protocol:
One or more compounds herein were tested for inhibitory activity of ABL1 targets according to at least one of the following cellular assays.
Cancer cell lines dependent on ABL1 kinase activity for proliferation and/or survival were plated at 3000 cells per well (96 well plate format) in RPMI 1640, and 10% FBS. Compounds were added to the cells in DMSO/media (final concentration 0.2% DMSO) and incubated for 72 hours at 37° C., 5% CO2. The effect of compound on cell viability was assessed using the CellTiter-Glo Luminescent Cell Viability Assay (Promega) followed by TopCount (Perkin Elmer, Boston, Mass.) quantitation. ABL1-dependent cell lines can include those naturally dependent on ABL1 activity or those engineered to be dependent on ABL1 activity (e.g. BaF/3 cells). The latter can be generated using wild-type ABL1 or mutant ABL1 (such as T315I ABL1) so that the activity of compounds can be assessed against different variants of the ABL1 kinase. Potential off-target effects of compounds were measured in parallel using a non-ABL1 driven cell line with the same assay readout. […] All experiments were performed in duplicate or greater.

Assay [4] concerns the target T3, human JAK3 (a.a. 781-1124) (Homo sapiens, UniProt P52333).
T3 construct: JAK3 (a.a. 781-1124); His tag (N); made in house; host or cells: insect cells (baculovirus)
In words: In vitro JAK kinase assay (HTRF), JAK3. In kind it is biochemical. As to conditions: JAK3, 3 μM ATP; read-out: EXAMPLE A JAK2-JAK3 HTRF-2 IC50. The protocol:
as §1

Sequence of TF1-BCRABL1 cells (P00519 whole entry, change not shown): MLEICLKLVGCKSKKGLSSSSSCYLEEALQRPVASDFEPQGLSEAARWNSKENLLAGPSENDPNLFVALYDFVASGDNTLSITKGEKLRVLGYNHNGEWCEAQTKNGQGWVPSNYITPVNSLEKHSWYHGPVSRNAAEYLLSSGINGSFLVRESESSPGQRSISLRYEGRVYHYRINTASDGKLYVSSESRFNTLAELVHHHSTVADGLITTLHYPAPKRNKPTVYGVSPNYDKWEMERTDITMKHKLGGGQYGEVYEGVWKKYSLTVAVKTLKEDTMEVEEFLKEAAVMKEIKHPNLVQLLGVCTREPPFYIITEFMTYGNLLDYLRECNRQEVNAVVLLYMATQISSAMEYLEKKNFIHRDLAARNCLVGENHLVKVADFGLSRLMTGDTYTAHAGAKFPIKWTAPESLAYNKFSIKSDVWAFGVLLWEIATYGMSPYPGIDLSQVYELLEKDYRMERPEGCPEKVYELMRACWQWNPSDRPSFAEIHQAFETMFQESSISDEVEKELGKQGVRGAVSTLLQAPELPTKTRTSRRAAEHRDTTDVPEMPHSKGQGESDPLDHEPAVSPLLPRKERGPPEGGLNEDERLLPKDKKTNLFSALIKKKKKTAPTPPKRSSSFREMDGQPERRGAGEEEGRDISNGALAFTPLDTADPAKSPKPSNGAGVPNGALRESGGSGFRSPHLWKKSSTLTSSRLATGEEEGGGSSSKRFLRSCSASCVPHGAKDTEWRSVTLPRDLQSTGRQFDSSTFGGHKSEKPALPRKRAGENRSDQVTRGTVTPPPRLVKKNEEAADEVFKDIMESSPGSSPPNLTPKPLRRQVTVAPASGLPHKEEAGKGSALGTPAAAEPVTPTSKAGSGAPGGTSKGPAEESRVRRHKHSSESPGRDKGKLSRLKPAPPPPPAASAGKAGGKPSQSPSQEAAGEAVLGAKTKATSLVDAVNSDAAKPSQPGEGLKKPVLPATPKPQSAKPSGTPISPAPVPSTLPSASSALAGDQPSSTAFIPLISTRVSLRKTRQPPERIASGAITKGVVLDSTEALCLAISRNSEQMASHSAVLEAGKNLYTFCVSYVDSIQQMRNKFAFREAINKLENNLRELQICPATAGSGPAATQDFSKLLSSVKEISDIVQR
T1 sequence (O60674 828-1132): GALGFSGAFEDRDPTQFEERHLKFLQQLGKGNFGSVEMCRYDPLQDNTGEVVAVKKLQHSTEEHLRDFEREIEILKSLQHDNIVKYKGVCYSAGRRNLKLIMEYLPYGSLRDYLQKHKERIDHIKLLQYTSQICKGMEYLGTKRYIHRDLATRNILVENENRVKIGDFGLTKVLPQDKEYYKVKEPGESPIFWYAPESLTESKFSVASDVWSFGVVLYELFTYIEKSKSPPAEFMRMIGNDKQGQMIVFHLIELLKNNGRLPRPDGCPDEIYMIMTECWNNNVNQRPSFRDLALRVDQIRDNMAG
T3 sequence (P52333 781-1124): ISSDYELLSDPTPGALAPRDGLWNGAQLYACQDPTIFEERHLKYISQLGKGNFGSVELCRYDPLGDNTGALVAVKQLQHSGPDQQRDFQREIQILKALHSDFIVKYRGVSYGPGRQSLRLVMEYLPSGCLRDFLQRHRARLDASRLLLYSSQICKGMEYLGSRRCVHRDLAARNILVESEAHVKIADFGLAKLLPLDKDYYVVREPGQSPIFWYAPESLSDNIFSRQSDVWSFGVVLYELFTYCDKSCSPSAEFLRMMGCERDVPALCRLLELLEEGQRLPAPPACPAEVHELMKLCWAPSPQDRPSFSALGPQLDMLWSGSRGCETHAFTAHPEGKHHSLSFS
T2 sequence (P23458 849-1154): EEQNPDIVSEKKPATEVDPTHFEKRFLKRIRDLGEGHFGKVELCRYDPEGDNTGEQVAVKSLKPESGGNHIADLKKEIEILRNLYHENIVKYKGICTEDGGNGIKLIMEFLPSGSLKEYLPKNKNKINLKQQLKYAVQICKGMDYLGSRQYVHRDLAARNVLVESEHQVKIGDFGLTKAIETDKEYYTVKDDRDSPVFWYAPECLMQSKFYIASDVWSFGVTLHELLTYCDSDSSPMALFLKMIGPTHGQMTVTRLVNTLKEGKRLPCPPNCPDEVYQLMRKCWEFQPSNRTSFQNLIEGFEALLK

Consider `Cc1ccc(NC(=O)c2cccc(F)c2)cc1-c1ccc2c(c1)[nH]c1ncncc12` [Example 6, 3-fluoro-N-[4-methyl-3-(9H-pyrimido[4,5-b]indol-7-yl)-phenyl]benzamide], for which the IC50 is ≤ 500 nM in assay [1], 500 to 1000 nM in assay [2], ≤ 500 nM in assay [3] and ≤ 500 nM in assay [4]. For the same compound, the GI50 on TF1-BCRABL1 cells was ≤ 500 nM.

For `Cc1cn(-c2cc(C(=O)Nc3ccc(C)c(-c4ccc5c(c4)[nH]c4ncncc45)c3)cc(C(F)(F)F)c2)cn1` [Example 2, 3-(4-Methyl-1H-imidazol-1-yl)-N-[4-methyl-3-(9H-pyrimido[4,5-b]indol-7-yl)-phenyl]-5-(trifluoromethyl)benzamide bis(trifluoroacetate)], the IC50 in assay [1] was ≤ 500 nM; in assay [2], 500 to 1000 nM; in assay [3] it was ≤ 500 nM; in assay [4], ≤ 500 nM. In addition, the GI50 on TF1-BCRABL1 cells is ≤ 500 nM.

Consider `Cc1ccc(C(=O)NCc2cccc(C(F)(F)F)c2)cc1-c1ccc2c(c1)[nH]c1ncncc12` [Example 56, 4-methyl-3-(9H-pyrimido-[4,5-b]indol-7-yl)-N-[3-(trifluoromethyl)benzyl]-benzamide], for which the 50% inhibitory concentration (IC50) was > 1000 nM in assay [1], > 1000 nM in assay [2], > 1000 nM in assay [3] and ≤ 500 nM in assay [4]. Moreover, at TF1-BCRABL1 cells, the GI50 was ≤ 500 nM.

With `Cc1ccc(NC(=O)c2cc(F)cc(C(F)(F)F)c2)cc1-c1ccc2c(c1)[nH]c1ncncc12` [Example 19, 3-Fluoro-N-[4-methyl-3-(9H-pyrimido[4,5-b]indol-7-yl)phenyl]-5-(trifluoro-methyl)benzamide], the IC50 in assay [1], in assay [2], in assay [3] and in assay [4] was ≤ 500 nM each time. Further, the GI50 at TF1-BCRABL1 cells is ≤ 500 nM.

On to `Cc1ccc(NC(=O)c2cc(NCCN(C)C)cc(C(F)(F)F)c2)cc1-c1ccc2c(c1)[nH]c1ncncc12` [Example 38, 3-{[2-(dimethylamino)ethyl]-amino}-N-[4-methyl-3-(9H-pyrimido [4,5-b]indol-7-yl)-phenyl]-5-(trifluoromethyl) benzamide], for which the 50% inhibitory concentration (IC50) is ≤ 500 nM in assay [1], 500 to 1000 nM in assay [2], ≤ 500 nM in assay [3] and ≤ 500 nM in assay [4]. The GI50 on TF1-BCRABL1 cells is ≤ 500 nM.

As for `Cc1cn(-c2cc(NC(=O)c3ccc(C)c(-c4ccc5c(c4)[nH]c4ncncc45)c3)cc(C(F)(F)F)c2)cn1` [Example 62, 4-methyl-N-[3-(4-methyl-1H-imidazol-1-yl)-5-(trifluoro-methyl)phenyl]-3-(9H-pyrimido[4,5-b]indol-7-yl)-benzamide], the IC50 in assay [1] is ≤ 500 nM; in assay [2], 500 to 1000 nM; in assay [3], ≤ 500 nM; in assay [4] it was ≤ 500 nM. In addition, the GI50 at TF1-BCRABL1 cells was ≤ 500 nM.

Take `O=C(Nc1ccc(F)c(-c2ccc3c(c2)[nH]c2ncncc23)c1)c1cccc(C(F)(F)F)c1` [Example 13, N-[4-fluoro-3-(9H-pyrimido-[4,5-b]indol-7-yl)phenyl]-3-(trifluoromethyl)benzamide]: the half-maximal inhibitory concentration (IC50) in assay [1], in assay [2], in assay [3] and in assay [4] was ≤ 500 nM in each case. Also, on TF1-BCRABL1 cells, the GI50 was ≤ 500 nM.

In the case of `Cc1ccc(NC(=O)c2ccccc2C(F)(F)F)cc1-c1ccc2c(c1)[nH]c1ncncc12` [Example 12, N-[4-methyl-3-(9H-pyrimido-[4,5-b]indol-7-yl)phenyl]-2-(trifluoromethyl)benzamide], the half-inhibitory concentration (IC50) in assay [1] is > 1000 nM; in assay [2], > 1000 nM; in assay [3] it was ≤ 500 nM; in assay [4] it was ≤ 500 nM. The GI50 at TF1-BCRABL1 cells lay in the range of 500 to 1000 nM.

As to `Cc1ccc(NC(=O)c2cc(N3CCNCC3)cc(C(F)(F)F)c2)cc1-c1ccc2c(c1)[nH]c1ncncc12` [Example 28, N-[4-methyl-3-(9H-pyrimido-[4,5-b]indol-7-yl)phenyl]-3-piperazin-1-yl-5-(trifluoro-methyl)benzamide], the concentration for half-maximal inhibition (IC50) in assay [1] was ≤ 500 nM; in assay [2], 500 to 1000 nM; in assay [3], ≤ 500 nM; in assay [4], ≤ 500 nM. Further, the GI50 on TF1-BCRABL1 cells was ≤ 500 nM.

Turning to `Cc1ccc(C(=O)N[C@H](C)c2ccccc2)cc1-c1ccc2c(c1)[nH]c1ncncc12` [Example 63, 4-methyl-N-[(1R)-1-phenylethyl]-3-(9H-pyrimido[4,5-b]indol-7-yl)benzamide], the IC50 in assay [1] is > 1000 nM; in assay [2], > 1000 nM; in assay [3], > 1000 nM; in assay [4] it was 500 to 1000 nM. Also, the GI50 on TF1-BCRABL1 cells lay in the range of 500 to 1000 nM.

Regarding `Cc1ncc(NC(=O)c2cc(F)cc(C(F)(F)F)c2)cc1-c1ccc2c(c1)[nH]c1ncncc12` [Example 71, 3-Fluoro-N-[6-methyl-5-(9H-pyrimido[4,5-b]indol-7-yl)pyridin-3-yl]-5-(trifluoromethyl)benzamide], the half-inhibitory concentration (IC50) in assay [1], in assay [3] and in assay [4] was ≤ 500 nM each time. On TF1-BCRABL1 cells, the GI50 was ≤ 500 nM.

With `Cc1ncc(NC(=O)c2cc(-n3cnc(CO)c3)cc(C(F)(F)F)c2)cc1-c1ccc2c(c1)[nH]c1ncncc12` [Example 75, 3-[4-(hydroxymethyl)-1H-imidazol-1-yl]-N-[6-methyl-5-(9H-pyrimido[4,5-b]indol-7-yl)pyridin-3-yl]-5-(trifluoromethyl)benzamide tris(trifluoroacetate) (salt)], the concentration for half-maximal inhibition (IC50) in assay [1], in assay [3] and in assay [4] was ≤ 500 nM in each case. The GI50 on TF1-BCRABL1 cells was ≤ 500 nM.

With `Cc1ccc(NC(=O)c2cc(NCCCN(C)C)cc(C(F)(F)F)c2)cc1-c1ccc2c(c1)[nH]c1ncncc12` [Example 33, 3-{[3-(dimethylamino)propyl]-amino}-N-[4-methyl-3-(9H-pyrimido[4,5-b]indol-7-yl)-phenyl]-5-(trifluoromethyl)-benzamide], the 50% inhibitory concentration (IC50) in assay [1], in assay [3] and in assay [4] was ≤ 500 nM in each case. In addition, at TF1-BCRABL1 cells, the GI50 was ≤ 500 nM.

As for `Cc1ccc(NC(=O)c2cc(N(C)C)cc(C(F)(F)F)c2)cc1-c1ccc2c(c1)[nH]c1ncncc12` [Example 36, 3-(dimethylamino)-N-[4-methyl-3-(9H-pyrimido[4,5-b]-indol-7-yl)phenyl]-5-(trifluoromethyl)benzamide], the IC50 in assay [1], in assay [3] and in assay [4] was ≤ 500 nM each time. The GI50 at TF1-BCRABL1 cells is ≤ 500 nM.

`Cc1ccc(NC(=O)c2cc(N3CCC(N(C)C)C3)cc(C(F)(F)F)c2)cc1-c1ccc2c(c1)[nH]c1ncncc12` (stereo not shown) [Example 37, 3-[3-(dimethylamino)-pyrrolidin-1-yl]-N-[4-methyl-3-(9H-pyrimido[4,5-b]indol-7-yl)phenyl]-5-(trifluoromethyl)-benzamide]: the IC50 in assay [1], in assay [3] and in assay [4] was ≤ 500 nM throughout. In addition, the GI50 on TF1-BCRABL1 cells is ≤ 500 nM.
